{"source": "ChEMBL document CHEMBL1201862", "about": "“PubChem BioAssay data set” (2004)", "key": {"Exodeoxyribonuclease V": {"target": "T1, Exodeoxyribonuclease V (Escherichia coli (strain K12), UniProt P04993+P07648+P08394)", "T1 sequence (P04993 whole entry)": "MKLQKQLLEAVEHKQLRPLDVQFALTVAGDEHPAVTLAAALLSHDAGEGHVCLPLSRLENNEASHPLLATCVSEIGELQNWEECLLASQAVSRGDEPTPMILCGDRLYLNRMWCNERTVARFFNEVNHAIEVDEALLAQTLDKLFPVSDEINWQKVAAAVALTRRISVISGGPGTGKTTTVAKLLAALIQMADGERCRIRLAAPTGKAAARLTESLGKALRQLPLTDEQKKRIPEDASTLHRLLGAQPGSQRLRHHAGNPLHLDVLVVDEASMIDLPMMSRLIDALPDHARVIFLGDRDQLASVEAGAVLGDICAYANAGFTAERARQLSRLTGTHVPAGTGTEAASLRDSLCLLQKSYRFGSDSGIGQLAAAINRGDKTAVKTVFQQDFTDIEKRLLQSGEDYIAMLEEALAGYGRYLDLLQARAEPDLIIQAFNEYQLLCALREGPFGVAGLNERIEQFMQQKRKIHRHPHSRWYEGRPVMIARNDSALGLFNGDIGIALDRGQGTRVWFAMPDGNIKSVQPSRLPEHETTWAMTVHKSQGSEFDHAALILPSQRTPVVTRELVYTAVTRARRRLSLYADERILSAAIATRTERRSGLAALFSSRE", "T1 sequence (P07648 whole entry)": "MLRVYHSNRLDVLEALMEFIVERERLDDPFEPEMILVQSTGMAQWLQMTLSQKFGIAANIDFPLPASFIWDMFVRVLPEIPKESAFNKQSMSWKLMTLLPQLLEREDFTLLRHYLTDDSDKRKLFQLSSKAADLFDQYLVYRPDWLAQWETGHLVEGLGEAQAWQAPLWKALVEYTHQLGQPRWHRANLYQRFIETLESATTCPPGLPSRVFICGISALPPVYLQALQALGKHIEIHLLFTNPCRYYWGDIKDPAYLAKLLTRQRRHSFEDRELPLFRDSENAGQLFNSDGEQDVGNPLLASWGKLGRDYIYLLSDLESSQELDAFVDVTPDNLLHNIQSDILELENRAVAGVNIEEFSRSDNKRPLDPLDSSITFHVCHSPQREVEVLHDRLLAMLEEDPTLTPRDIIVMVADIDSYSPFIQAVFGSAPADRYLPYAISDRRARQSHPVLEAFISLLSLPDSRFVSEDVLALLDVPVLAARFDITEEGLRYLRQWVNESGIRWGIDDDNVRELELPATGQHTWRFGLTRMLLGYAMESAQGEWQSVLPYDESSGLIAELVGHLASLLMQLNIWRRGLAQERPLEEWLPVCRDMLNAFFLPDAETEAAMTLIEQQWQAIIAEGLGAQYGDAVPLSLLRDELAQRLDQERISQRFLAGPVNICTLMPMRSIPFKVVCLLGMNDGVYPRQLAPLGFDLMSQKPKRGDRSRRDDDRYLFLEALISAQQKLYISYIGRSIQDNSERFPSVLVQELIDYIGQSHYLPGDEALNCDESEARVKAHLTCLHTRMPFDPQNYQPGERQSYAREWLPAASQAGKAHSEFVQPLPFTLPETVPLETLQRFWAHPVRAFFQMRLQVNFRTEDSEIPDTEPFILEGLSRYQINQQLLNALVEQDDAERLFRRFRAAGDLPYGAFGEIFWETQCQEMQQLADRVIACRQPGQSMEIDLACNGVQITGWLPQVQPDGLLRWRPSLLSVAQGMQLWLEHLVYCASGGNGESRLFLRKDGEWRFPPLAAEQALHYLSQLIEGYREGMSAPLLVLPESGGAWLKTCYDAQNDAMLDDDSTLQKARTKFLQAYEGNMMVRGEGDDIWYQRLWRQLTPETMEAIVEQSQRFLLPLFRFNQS", "T1 sequence (P08394 whole entry)": "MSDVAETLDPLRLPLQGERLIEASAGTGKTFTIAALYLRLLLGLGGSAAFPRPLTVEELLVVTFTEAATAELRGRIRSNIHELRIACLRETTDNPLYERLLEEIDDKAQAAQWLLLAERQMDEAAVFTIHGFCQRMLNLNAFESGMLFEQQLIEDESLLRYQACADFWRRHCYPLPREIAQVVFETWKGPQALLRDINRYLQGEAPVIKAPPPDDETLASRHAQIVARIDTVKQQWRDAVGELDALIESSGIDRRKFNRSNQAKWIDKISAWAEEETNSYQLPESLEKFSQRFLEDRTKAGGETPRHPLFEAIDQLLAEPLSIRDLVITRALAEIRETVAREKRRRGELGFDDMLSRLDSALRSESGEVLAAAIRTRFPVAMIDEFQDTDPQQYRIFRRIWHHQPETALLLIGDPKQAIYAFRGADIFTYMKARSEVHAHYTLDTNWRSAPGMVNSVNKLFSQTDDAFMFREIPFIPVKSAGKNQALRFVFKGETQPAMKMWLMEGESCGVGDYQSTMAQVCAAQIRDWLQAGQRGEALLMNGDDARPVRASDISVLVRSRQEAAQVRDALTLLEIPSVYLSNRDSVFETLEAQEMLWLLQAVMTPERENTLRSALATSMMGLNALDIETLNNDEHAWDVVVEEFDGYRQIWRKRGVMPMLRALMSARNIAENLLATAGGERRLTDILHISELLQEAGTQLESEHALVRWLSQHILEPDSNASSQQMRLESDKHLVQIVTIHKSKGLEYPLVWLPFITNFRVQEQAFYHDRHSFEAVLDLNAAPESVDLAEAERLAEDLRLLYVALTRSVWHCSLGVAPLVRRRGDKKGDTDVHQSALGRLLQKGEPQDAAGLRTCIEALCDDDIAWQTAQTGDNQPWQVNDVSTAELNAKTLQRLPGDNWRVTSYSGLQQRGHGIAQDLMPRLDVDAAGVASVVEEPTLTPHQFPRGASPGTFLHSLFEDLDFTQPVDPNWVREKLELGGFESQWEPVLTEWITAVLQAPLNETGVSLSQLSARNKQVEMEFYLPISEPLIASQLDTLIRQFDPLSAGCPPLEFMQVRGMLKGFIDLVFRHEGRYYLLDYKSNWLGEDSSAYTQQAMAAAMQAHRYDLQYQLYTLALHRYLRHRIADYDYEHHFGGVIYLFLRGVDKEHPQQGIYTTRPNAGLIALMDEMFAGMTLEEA", "experiment": "E. coli RecBCD inhibitors, dose response, counter-screen for AddAB inhibitor project, absorbance, V66 E. coli, mutant T4 phage (AID 492957)", "type": "functional, cell-based, Escherichia coli str. K-12 substr. MG1655"}, "[1]": {"experiment": "Counterscreen for AddAB inhibitors: absorbance-based bacterial cell-based high throughput dose response assay for inhibitors of bacterial viability. [Related pubchem assays (depositor defined):AID435030, AID449728, AID449731, AID488942, AID488955, AID488956]", "type": "functional"}}, "note": "The source made the active and inactive calls. How the calls were made is not given here.", "data": [{"smiles": "CCCCC(=O)NC(c1ccc(N(C)C)cc1)c1ccc2cccnc2c1O", "note": "(configuration not stated)", "values": [{"measurement": "IC50", "setting": "Exodeoxyribonuclease V", "value": "> 119 µM (inactive)"}, {"measurement": "IC50", "setting": "[1]", "value": "> 119 µM (inactive)"}]}]}
